{"source": "patent US20090054375A1", "about": "“Compositions, Systems, and/or Methods Involving Chlorine Dioxide” (priority 2007, published 2009)", "assay": "Enhanced solubility of beta-cyclodextrin in water containing ClO2 (slurry test)", "assay_type": "physicochemical", "conditions": "100 g slurries of 5% beta-cyclodextrin (w/w) in 8000 ppm ClO2 vs ultrapure water, mixed at 200 rpm for 3 days, dried 2 days", "data": [{"compound": "OC[C@H]1O[C@@H]2O[C@H]3[C@H](O)[C@@H](O)[C@@H](O[C@H]4[C@H](O)[C@@H](O)[C@@H](O[C@H]5[C@H](O)[C@@H](O)[C@@H](O[C@H]6[C@H](O)[C@@H](O)[C@@H](O[C@H]7[C@H](O)[C@@H](O)[C@@H](O[C@H]8[C@H](O)[C@@H](O)[C@@H](O[C@H]1[C@H](O)[C@H]2O)O[C@@H]8CO)O[C@@H]7CO)O[C@@H]6CO)O[C@@H]5CO)O[C@@H]4CO)O[C@@H]3CO", "note": "[beta-cyclodextrin]", "values": [{"measurement": "weight of dried undissolved beta-cyclodextrin from the ClO2 containing slurry, less than the control slurry", "result": 0.32, "unit": "g"}]}]}
